Data: patent US11279681B2, “3-alkyl bicyclic [4,5,0] hydroxamic acids as HDAC inhibitors” (Valo Health, Inc., priority 2015, dated 2022)

target: T1, HDAC6 (Homo sapiens, UniProt Q9UBN7); assay: In vitro histone deacetylase assay: enzymatic HDAC6 electrophoretic mobility shift assay; assay type: biochemical; conditions: full length human recombinant HDAC6, 1 nM enzyme, 2 μM peptide substrate RHKK(Ac)-NH2, 25° C.; read-out: Inhibitory Concentration (IC50) Values for Representative Compounds against HDAC6, Activity Range
T1 sequence (Q9UBN7 1-1215): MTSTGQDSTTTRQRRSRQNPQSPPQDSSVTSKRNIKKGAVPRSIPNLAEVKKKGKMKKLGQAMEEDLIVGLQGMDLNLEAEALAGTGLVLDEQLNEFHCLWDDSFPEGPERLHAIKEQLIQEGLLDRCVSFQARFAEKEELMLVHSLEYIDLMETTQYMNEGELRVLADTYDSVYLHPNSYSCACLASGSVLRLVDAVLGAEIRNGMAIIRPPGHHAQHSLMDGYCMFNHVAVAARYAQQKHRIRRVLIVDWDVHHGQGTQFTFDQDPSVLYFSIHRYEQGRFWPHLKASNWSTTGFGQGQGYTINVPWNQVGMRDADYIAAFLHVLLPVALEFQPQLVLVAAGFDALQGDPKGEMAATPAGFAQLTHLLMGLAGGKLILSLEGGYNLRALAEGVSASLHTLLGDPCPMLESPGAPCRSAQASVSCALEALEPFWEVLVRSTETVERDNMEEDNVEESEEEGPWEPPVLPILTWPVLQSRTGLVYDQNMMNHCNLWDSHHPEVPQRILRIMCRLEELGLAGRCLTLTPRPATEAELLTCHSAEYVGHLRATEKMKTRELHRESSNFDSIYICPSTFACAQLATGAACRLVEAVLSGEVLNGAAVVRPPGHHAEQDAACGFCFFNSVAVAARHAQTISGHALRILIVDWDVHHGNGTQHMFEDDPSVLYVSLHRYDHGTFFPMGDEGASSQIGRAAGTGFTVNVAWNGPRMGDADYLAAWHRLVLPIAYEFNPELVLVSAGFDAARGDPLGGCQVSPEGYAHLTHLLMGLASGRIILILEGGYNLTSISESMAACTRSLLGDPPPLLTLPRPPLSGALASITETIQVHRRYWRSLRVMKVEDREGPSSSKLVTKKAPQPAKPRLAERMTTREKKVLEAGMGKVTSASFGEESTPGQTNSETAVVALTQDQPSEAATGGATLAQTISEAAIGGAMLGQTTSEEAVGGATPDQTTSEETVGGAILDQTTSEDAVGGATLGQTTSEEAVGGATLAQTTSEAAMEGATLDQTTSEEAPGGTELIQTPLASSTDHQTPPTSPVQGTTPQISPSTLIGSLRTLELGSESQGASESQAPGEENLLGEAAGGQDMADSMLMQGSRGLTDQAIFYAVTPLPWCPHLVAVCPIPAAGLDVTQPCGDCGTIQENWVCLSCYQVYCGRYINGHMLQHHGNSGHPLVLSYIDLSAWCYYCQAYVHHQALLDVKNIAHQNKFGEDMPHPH
Experimental: The enzymatic HDAC6 assay was performed using electrophoretic mobility shift assay. […] The enzymatic reactions were assembled in 384 well plates in a total volume of 25 μL in a reaction buffer composing: 100 mM HEPES, pH7.5, 25 mM KCl, 0.1% bovine serum albumin, 0.01% Triton X-100, 1% DMSO (from compounds) 2 μM of the fluorescently labeled peptide substrate and enzyme. The enzyme was added at a final concentration of 1 nM. The peptide substrate RHKK(Ac)-NH2 was used. The compounds were tested at 12 concentrations spaced by 3× dilution intervals. Negative control samples (0%-inhibition in the absence of inhibitor) and positive control samples (100%-inhibition) were assembled in replicates of four in each assay plate. The reactions were incubated at 25° C. and quenched by the addition of 45 μL of termination buffer (100 mM HEPES, pH 7.5, 0.01% Triton X-100, 0.05% SDS).
The terminated assay plates were analyzed on LabChip® 3000 microfluidic electrophoresis instrument (Perkin Elmer/Caliper Life Sciences). The fluorescence intensity of the electrophoretically separated de-acetylated product and substrate peptide was measured. Activity in each sample was determined as the product to sum ratio (PSR): P/(S+P), where P is the peak height of the product peptide and S is the peak height of the substrate peptide. Percent inhibition (Pinh) is determined using the following equation:
Pinh=(PSR0%−PSRinh)/(PSR0%−PSR100%)*100, where PSRinh is the product sum ratio in the presence of inhibitor, PSR0% is the average product sum ration in the absence of inhibitor and PSR100% is the average product sum ratio in 100%-inhibition control samples. The IC50 values of inhibitors were determined by fitting the %-inhibition curves with 4 parameter dose-response model using XLfit 4 software.

| SMILES | IC50 |
| --- | --- |
| CC(C)[C@H]1COc2cc(C(=O)NO)ccc2CN1 | ≤ 100 nM |
| O=C1CN(Cc2ccccc2)Cc2cc(C(=O)NO)ccc2N1 [4-benzyl-N-hydroxy-2-oxo-2,3,4,5-tetrahydro-1H-benzo[e][1,4]diazepine-7-carboxamide] | 100 to 500 nM |
| COC1CCN(C(=O)N2Cc3ccc(C(=O)NO)cc3OC[C@@H]2C)C1 (stereo partly drawn) [(3S)-N-hydroxy-4-(3-methoxypyrrolidine-1-carbonyl)-3-methyl-2,3,4,5-tetrahydrobenzo[f][1,4]oxazepine-8-carboxamide] | ≤ 100 nM |
| CCOC(=O)N1Cc2ccc(C(=O)NO)cc2OC[C@@H]1C [ethyl(S)-8-(hydroxycarbamoyl)-3-methyl-2,3-dihydrobenzo[f][1,4]oxazepine-4(5H)-carboxylate] | ≤ 100 nM |
| O=C(NO)c1ccc2c(c1)OCCNC2 [N-hydroxy-2,3,4,5-tetrahydrobenzo[f][1,4]oxazepine-8-carboxamide] | 100 to 500 nM |
| O=C(NO)c1ccc2c(c1)OCCN(c1nc3ccccc3n1CC1CCOCC1)C2 | 100 to 500 nM |
| C[C@H]1COc2cc(C(=O)NO)ccc2CN1CC1CCCO1 (stereo partly drawn) [(3S)-N-hydroxy-3-methyl-4-((tetrahydrofuran-2-yl)methyl)-2,3,4,5-tetrahydrobenzo[f][1,4]oxazepine-8-carboxamide] | ≤ 100 nM |
| COc1ccc(S(=O)(=O)N2Cc3ccc(C(=O)NO)cc3O[C@@H](C)C2)cc1 | > 500 nM |
| O=C1CN(Cc2nc3ccccc3[nH]2)Cc2cc(C(=O)NO)ccc2N1 | ≤ 100 nM |
| C[C@H]1COc2cc(C(=O)NO)ccc2CN1c1cccc(C(F)(F)F)c1 [(S)-N-hydroxy-3-methyl-4-(3-(trifluoromethyl)phenyl)-2,3,4,5-tetrahydrobenzo[f][1,4]oxazepine-8-carboxamide] | 100 to 500 nM |
| C[C@H]1COc2cc(C(=O)NO)ccc2CN1C(=O)Nc1ccncc1 [(S)-N8-hydroxy-3-methyl-N4-(pyridin-4-yl)-2,3-dihydrobenzo[f][1,4]oxazepine-4,8(5H)-dicarboxamide] | ≤ 100 nM |
| CC(C)[C@H]1COc2cc(C(=O)NO)ccc2CN1c1cccnc1 [(S)-N-hydroxy-3-isopropyl-4-(pyridin-3-yl)-2,3,4,5-tetrahydrobenzo[f][1,4]oxazepine-8-carboxamide] | ≤ 100 nM |
| O=C1CN(Cc2ccc(-n3cccn3)cc2)Cc2cc(C(=O)NO)ccc2N1 | ≤ 100 nM |
| O=C(NO)c1ccc2c(c1)OCCN(C(=O)N1CCCCC1)C2 | ≤ 100 nM |
| COc1ccc(NC(=O)N2Cc3ccc(C(=O)NO)cc3O[C@H](c3ccccc3)C2)cc1 [(R)-N8-hydroxy-N4-(4-methoxyphenyl)-2-phenyl-2,3-dihydrobenzo[f][1,4]oxazepine-4,8(5H)-dicarboxamide] | 100 to 500 nM |
| O=C1CN(Cc2ccccn2)Cc2cc(C(=O)NO)ccc2N1 | > 500 nM |

| SMILES | IC50 |
| --- | --- |
| CC(C)N1Cc2ccc(C(=O)NO)cc2OC[C@@H]1C [(S)-N-hydroxy-4-isopropyl-3-methyl-2,3,4,5-tetrahydrobenzo[f][1,4]oxazepine-8-carboxamide] | > 500 nM |
| CC1(C)COc2cc(C(=O)NO)ccc2CN1 [N-hydroxy-3,3-dimethyl-2,3,4,5-tetrahydrobenzo[f][1,4]oxazepine-8-carboxamide] | ≤ 100 nM |
| O=C(NO)c1ccc2c(c1)OCCN(c1nc3ccccc3n1CC1CCCCC1)C2 | 100 to 500 nM |
| C[C@@H]1CN(c2ccccc2)Cc2ccc(C(=O)NO)cc2O1 | 100 to 500 nM |
| COc1ccc(NC(=O)N2Cc3ccc(C(=O)NO)cc3O[C@H](C(C)C)C2)cc1 [(R)-N8-hydroxy-2-isopropyl-N4-(4-methoxyphenyl)-2,3-dihydrobenzo[f][1,4]oxazepine-4,8(5H)-dicarboxamide] | > 500 nM |
| C[C@H]1COc2cc(C(=O)NO)ccc2CN1c1ccc(F)cc1 [(S)-4-(4-fluorophenyl)-N-hydroxy-3-methyl-2,3,4,5-tetrahydrobenzo[f][1,4]oxazepine-8-carboxamide] | ≤ 100 nM |
| O=C1CN(Cc2cccnc2)Cc2cc(C(=O)NO)ccc2N1 | 100 to 500 nM |
| O=C(NO)c1ccc2c(c1)OCCN(C(=O)N1Cc3ccccc3C1)C2 [N-hydroxy-4-(isoindoline-2-carbonyl)-2,3,4,5-tetrahydrobenzo[f][1,4]oxazepine-8-carboxamide] | ≤ 100 nM |
| O=C1CN(Cc2nccs2)Cc2cc(C(=O)NO)ccc2N1 | > 500 nM |
| O=C(NO)c1ccc2c(c1)OCCN(C(=O)N1CCCC1)C2 [N-hydroxy-4-(pyrrolidine-1-carbonyl)-2,3,4,5-tetrahydrobenzo[f][1,4]oxazepine-8-carboxamide] | ≤ 100 nM |
| COc1ccccc1N1Cc2ccc(C(=O)NO)cc2OC[C@@H]1C [(S)-N-hydroxy-4-(2-methoxyphenyl)-3-methyl-2,3,4,5-tetrahydrobenzo[f][1,4]oxazepine-8-carboxamide] | ≤ 100 nM |
| O=C(NO)c1ccc2c(c1)OCCN(Cc1ccccc1)S2(=O)=O | > 500 nM |
| CC[C@H]1COc2cc(C(=O)NO)ccc2CN1c1ccccc1C [(S)-3-ethyl-N-hydroxy-4-(o-tolyl)-2,3,4,5-tetrahydrobenzo[f][1,4]oxazepine-8-carboxamide] | ≤ 100 nM |
| COc1ccc(NC(=O)N2Cc3ccc(C(=O)NO)cc3O[C@H](C)C2)cc1 | 100 to 500 nM |
| CC(C)[C@H]1COc2cc(C(=O)NO)ccc2CN1c1ccccc1 | ≤ 100 nM |
| C[C@H]1COc2cc(C(=O)NO)ccc2CN1C(=O)N1CCOCC1 [(S)-N-hydroxy-3-methyl-4-(morpholine-4-carbonyl)-2,3,4,5-tetrahydrobenzo[f][1,4]oxazepine-8-carboxamide] | ≤ 100 nM |

Continued, values first:

| IC50 | SMILES |
| --- | --- |
| > 500 nM | COc1ccc(CN2CCOc3ccc(C(=O)NO)cc3C2C)cc1 (stereo not drawn) |
| > 500 nM | O=C(NO)c1ccc2c(c1)OCCN(c1ccncc1)C2 [N-hydroxy-4-(pyridin-4-yl)-2,3,4,5-tetrahydrobenzo[f][1,4]oxazepine-8-carboxamide] |
| > 500 nM | COc1ccc(CN2CCOc3nc(C(=O)NO)ccc3C2)cc1 |
| ≤ 100 nM | COc1ccc(CN2CC(=O)Nc3ccc(C(=O)NO)cc3C2)c(F)c1 |
| 100 to 500 nM | COc1ccc(CN2Cc3ccc(C(=O)NO)cc3OCC2(C)C)cc1 |
| 100 to 500 nM | COc1ccc(S(=O)(=O)N2CCOc3cc(C(=O)NO)cnc3C2)cc1 |
| 100 to 500 nM | COCCN1CCOc2cc(C(=O)NO)ccc2C1 [N-hydroxy-4-(2-methoxyethyl)-2,3,4,5-tetrahydrobenzo[f][1,4]oxazepine-8-carboxamide] |
| ≤ 100 nM | COc1ccc(CN2Cc3ccc(C(=O)NO)cc3OC[C@H]2C)cc1 |
| > 500 nM | COc1ccc(CN2CCOc3ccc(C(=O)NO)cc3C2)cc1 |
| 100 to 500 nM | CC(C)c1ccc(CN2CC(=O)Nc3ccc(C(=O)NO)cc3C2)nc1 |
| ≤ 100 nM | O=C(NO)c1ccc2c(c1)OCCN(Cc1nc3ccccc3[nH]1)C2 |
| 100 to 500 nM | Cc1ccc(N2CCOc3cc(C(=O)NO)ccc3C2)cc1 [N-hydroxy-4-(p-tolyl)-2,3,4,5-tetrahydrobenzo[f][1,4]oxazepine-8-carboxamide] |
| 100 to 500 nM | COc1ccc(CN2Cc3ccc(C(=O)NO)cc3O[C@H](C)C2)cc1 |
| > 500 nM | COc1ccc(NC(=O)N2CCOc3ccc(C(=O)NO)cc3C2)cc1 |
| > 500 nM | COc1ccc(CN2CCOc3ccc(C(=O)NO)cc3C2)nc1 |
| > 500 nM | COc1ccc(CN2CCN(C)c3ccc(C(=O)NO)cc3C2)cc1 |
